Assay: Solubility of Pylaklor White Grains S-5 UV indicator in fragrances
Conditions: for Color change of the solution: solution of the named fragrance with 5 wt. % Pylaklor White Grains S-5
[1] = Pylaklor White Grains S-5 at 5 wt. % in the named fragrance (Table 5)
[2] = Pylaklor White Grains S-5 at 5 wt. % in the named aldehyde fragrance (Table 6)

Protocol: The solubility of Pylaklor White Grains S-5 UV indicator was evaluated in difference chemical classes of fragrances at a UV indicator concentration of 5 wt. %. The resulting admixtures were evaluated for UV activity by exposure to UV light (400 nm ±5 nm) using a Rayovac VBUV-B light source and visual observation.
The solubility of Pylaklor White Grains S-5 UV indicator was evaluated in three different aldehyde fragrances at a UV indicator concentration of 5 wt. %. The resulting admixtures were evaluated for UV activity by exposure to UV light (400 nm±5 nm) using a Rayovac VBUV-B light source and visual observation.

Soluble [1]	Compound	Color change of the solution	Soluble [2]
Yes	C=CC(C)(O)CCC=C(C)C (stereo not shown) [Linalool]		
Yes	CCCCCCC(C=O)=Cc1ccccc1 [Hexyl cinnamic aldehyde]	changed color	
Yes	CCCCCC1C(=O)CCC1CC(=O)OC (stereo not shown) [Methyl dihydrojasmonate]		
Yes	CCCCCCC1CCC(=O)O1 (stereo not shown) [Gamma-decalactone]		

Second part, the compound before the results:

Compound	Soluble [1]	Color change of the solution	Soluble [2]
CC/C=C\CCO [Cis-3-hexanol]	Yes	changed from a straw color to a yellow color	
CCOC(C)=O [Ethyl acetate]	Yes		
O=C/C=C/c1ccccc1 [Cinnamic aldehyde]			Yes
CCCCCCCCCC=O [Aldehyde C-10 (decanal), decanal]			Yes
